The source of these data is US8658604B2, “Template-fixed beta-hairpin peptidomimetics with protease inhibitory activity” (Polyphor Ltd, priority 2005, dated 2014).

Molecules are shown by their SMILES. pIC50: −log10 of the molar value. Where a SMILES comes first, the peptide text is derived from it. Bounds are passed on as bounds.

For data set [1], the system named is HELA cells (Acc57). The experiment in a line: Cytotoxicity assay (MTT reduction), HELA cells. It is filed as cell-based. The following applies: Hela cells. As for the experimental part:
The cytotoxicity of the peptides to HELA cells (Acc57) and COS-7 cells (CRL-1651) was determined using the MTT reduction assay [see ref. 2 and 3, below]. Briefly the method was as follows: HELA cells and COS-7 cells were seeded at 7.0×10^3 and, respectively, 4.5×10^3 cells per well and grown in 96-well microtiter plates for 24 hours at 37° C. at 5% CO2. At this point, time zero (Tz) was determined by MTT reduction (see below). The supernatant of the remaining wells was discarded, and fresh medium and the peptides in serial dilutions of 12.5, 25 and 50 μM were pipetted into the wells. Each peptide concentration was assayed in triplicate. Incubation of the cells was continued for 48 hours at 37° C. at 5% CO2. Wells were then washed once with phosphate buffered saline (PBS) and subsequently 100 μl MTT reagent (0.5 mg/ml in medium RPMI1640 and, respectively, DMEM) were added to the wells. This was incubated at 37° C. for 2 hours and subsequently the medium was aspirated and 100 μl isopropanol were added to each well. The absorbance at 595 nm of the solubilized product was measured (OD595peptide). For each concentration averages were calculated from triplicates. The percentage of growth was calculated as follows: (OD595peptide-OD595Tz-OD595Empty well)/(OD595Tz-OD595Empty well)×100% and was plotted for each peptide concentration.
The LC 50 values (Lethal Concentration, defined as the concentration that kills 50% of the cells) were determined for each peptide by using the trend line function of EXCEL (Microsoft Office 2000) for the concentrations (50, 25, 12.5 and 0 μM), the corresponding growth percentages and the value −50, (=TREND(C50:C0,%50:%0,−50)).
The GI 50 (Growth Inhibition) concentrations were calculated for each peptide by using a trend line function for the concentrations (50, 25, 12.5 and 0 μg/ml), the corresponding percentages and the value 50, (=TREND (C50:C0,%50:%0,50).
(Tetrazolium assays rely on reduction of a dye to a coloured formazan, in cell work by metabolically active cells.)

For data set [2], the target named is T1, Elastase from human neutrophils (Homo sapiens, UniProt P08246).
T1 sequence (P08246 30-267): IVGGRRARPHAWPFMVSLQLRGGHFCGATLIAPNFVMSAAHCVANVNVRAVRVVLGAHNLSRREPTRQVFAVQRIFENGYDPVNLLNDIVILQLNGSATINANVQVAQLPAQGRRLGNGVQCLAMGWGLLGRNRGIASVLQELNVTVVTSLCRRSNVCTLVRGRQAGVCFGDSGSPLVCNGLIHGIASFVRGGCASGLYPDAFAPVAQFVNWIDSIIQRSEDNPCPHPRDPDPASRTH
As to the kind of experiment: Enzymatic assay, elastase. To be noted: Elastase IC50.

The target in data set [3] is Trypsin, from human pancreas (Homo sapiens, UniProt P07477). The experiment in a line: Enzymatic assay, trypsin. To be noted: at 100 μM.
Data set [4] deals with T2, Chymase, from human skin (Homo sapiens, UniProt P23946).
T2 sequence (P23946 22-247): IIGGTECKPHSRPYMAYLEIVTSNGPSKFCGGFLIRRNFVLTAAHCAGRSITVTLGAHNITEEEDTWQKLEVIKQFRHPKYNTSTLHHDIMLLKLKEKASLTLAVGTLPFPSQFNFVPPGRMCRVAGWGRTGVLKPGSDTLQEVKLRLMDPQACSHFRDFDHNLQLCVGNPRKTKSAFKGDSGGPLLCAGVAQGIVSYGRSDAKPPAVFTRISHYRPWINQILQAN
The experiment in a line: Enzymatic assay, chymase.

Data set [5] has as its target Thrombin, from Human Plasma (Homo sapiens, UniProt P00734). As to the kind of experiment: Enzymatic assay, thrombin.
The test system of data set [6] is Tryptase, from human lung. The experiment in a line: Enzymatic assay, tryptase. The following applies: at 100 μM.
Data set [7] has as its target Urokinase from human urine (Homo sapiens, UniProt P00749). As to the kind of experiment: Enzymatic assay, urokinase.
The target in data set [8] is T3, CathepsinG, from human neutrophils (Homo sapiens, UniProt P08311).
T3 sequence (P08311 21-244): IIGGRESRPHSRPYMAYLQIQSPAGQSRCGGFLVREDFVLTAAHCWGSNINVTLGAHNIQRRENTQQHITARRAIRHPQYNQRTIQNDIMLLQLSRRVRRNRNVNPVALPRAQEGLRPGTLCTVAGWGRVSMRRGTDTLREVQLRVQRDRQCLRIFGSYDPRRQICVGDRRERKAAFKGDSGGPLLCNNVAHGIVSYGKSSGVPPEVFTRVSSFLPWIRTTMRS
As to the kind of experiment: Enzymatic assay, cathepsin G. The following applies: for pIC50: Cathepsin G IC50.

In data set [9] the target is Chymotrypsin, from human pancreas (Homo sapiens, UniProt P17538). The experiment in a line: Enzymatic assay, chymotrypsin. The following applies: at 100 μM.
Data set [10] deals with Coagulation Factor Xa, from uman plasma (Homo sapiens, UniProt P00742). As to the kind of experiment: Enzymatic assay, coagulation factor Xa.
Coagulation Factor Xa, from uman plasma, sequence (P00742 235-488 limits assumed): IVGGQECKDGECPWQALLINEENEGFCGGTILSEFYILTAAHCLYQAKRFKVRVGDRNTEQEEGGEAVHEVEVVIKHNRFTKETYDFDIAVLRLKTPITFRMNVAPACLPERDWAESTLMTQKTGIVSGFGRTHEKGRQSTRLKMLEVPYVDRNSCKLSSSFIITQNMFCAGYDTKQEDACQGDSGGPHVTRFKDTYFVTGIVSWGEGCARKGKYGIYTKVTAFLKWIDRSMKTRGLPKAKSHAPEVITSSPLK
Coagulation Factor Xa, from uman plasma, sequence (P00742 41-179 limits assumed): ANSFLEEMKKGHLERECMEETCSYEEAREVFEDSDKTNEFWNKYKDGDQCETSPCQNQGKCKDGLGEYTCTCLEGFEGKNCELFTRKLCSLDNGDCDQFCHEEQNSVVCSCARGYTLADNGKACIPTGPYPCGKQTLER

Chymotrypsin, from human pancreas, sequence (P17538 19-263): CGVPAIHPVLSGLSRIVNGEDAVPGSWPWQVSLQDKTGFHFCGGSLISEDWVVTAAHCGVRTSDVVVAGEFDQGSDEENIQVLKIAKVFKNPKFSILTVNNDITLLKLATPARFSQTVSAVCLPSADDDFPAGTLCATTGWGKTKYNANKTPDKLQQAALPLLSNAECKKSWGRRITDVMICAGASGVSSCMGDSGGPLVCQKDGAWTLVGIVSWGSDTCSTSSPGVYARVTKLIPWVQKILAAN

In general, pIC50 refers to the IC50 on a negative log10 scale, so that one unit is a factor of ten. A lower pIC50 goes with a high IC50. Take `CCCC[C@@H]1NC(=O)[C@@H]2CCCN2C(=O)[C@H]2CCCCN2C(=O)[C@H](Cc2ccc(O)cc2)NC(=O)[C@@H]2CSSC[C@H](NC1=O)C(=O)N[C@@H]([C@@H](C)O)C(=O)N[C@@H](C)C(=O)N[C@@H](CO)C(=O)N[C@@H]([C@@H](C)CC)C(=O)N1CCC[C@H]1C(=O)N1CCC[C@H]1C(=O)N[C@@H](CCC(N)=O)C(=O)N2` [Ex. 120] (HELM PEPTIDE1{A.S.I.P.P.Q.C.Y.[O=C([C@H]1CCCCN1[*:1])[*:2]].P.[Nle].C.T}$PEPTIDE1,PEPTIDE1,7:R3-12:R3|PEPTIDE1,PEPTIDE1,1:R1-13:R2$$$V2.0): the Cytotoxicity LC50/GI50 Hela cells in data set [1] amounted to 38000 nM. Moreover, the pIC50 in [2] was 7.54.

As to `CCCC[C@@H]1NC(=O)[C@@H]2CCCN2C(=O)[C@H]2CCCN2C(=O)[C@H](CCCNC(=N)N)NC(=O)[C@@H]2CSSC[C@H](NC1=O)C(=O)N[C@@H]([C@@H](C)O)C(=O)N[C@@H](C)C(=O)N[C@@H](CO)C(=O)N[C@@H]([C@@H](C)CC)C(=O)N1CCC[C@H]1C(=O)N1CCC[C@H]1C(=O)N[C@@H](CCC(N)=O)C(=O)N2` [Ex. 92] (HELM PEPTIDE1{[Nle].C.T.A.S.I.P.P.Q.C.R.[dP].P}$PEPTIDE1,PEPTIDE1,2:R3-10:R3|PEPTIDE1,PEPTIDE1,1:R1-13:R2$$$V2.0), the Cytotoxicity LC50/GI50 Hela cells in [1] was found to be 93000 nM. In [2], this molecule had a pIC50 of 7.37.

Molecule `CCCC[C@@H]1NC(=O)[C@@H]2CCCN2C(=O)[C@H]2CCCN2C(=O)[C@H](Cc2ccc(O)cc2)NC(=O)[C@@H]2CSSC[C@H](NC1=O)C(=O)N[C@@H]([C@@H](C)O)C(=O)N[C@@H](C)C(=O)N[C@@H](CO)C(=O)N[C@@H](CC1CCCC1)C(=O)N1CCC[C@H]1C(=O)N1CCC[C@H]1C(=O)N[C@@H](CCC(N)=O)C(=O)N2` [Ex. 112] (HELM PEPTIDE1{[Nle].C.T.A.S.[O=C([C@H](CC1CCCC1)N[*:1])[*:2]].P.P.Q.C.Y.[dP].P}$PEPTIDE1,PEPTIDE1,2:R3-10:R3|PEPTIDE1,PEPTIDE1,1:R1-13:R2$$$V2.0) had a Cytotoxicity LC50/GI50 Hela cells in data set [1] of 33000 nM.

In [1], `CC[C@H](C)[C@@H]1NC(=O)[C@H](CO)NC(=O)[C@H](C)NC(=O)[C@H]([C@@H](C)O)NC(=O)[C@@H]2CSSC[C@H](NC(=O)[C@H](CCC(N)=O)NC(=O)[C@@H]3CCCN3C(=O)[C@@H]3CCCN3C1=O)C(=O)N[C@@H](Cc1ccc(O)cc1)C(=O)N1CCC[C@@H]1C(=O)N1CCC[C@H]1C(=O)N[C@@H](CCC(C)C)C(=O)N2` [Ex. 100] (HELM PEPTIDE1{[CC(C)CC[C@H](N[*:1])C(=O)[*:2]].C.T.A.S.I.P.P.Q.C.Y.[dP].P}$PEPTIDE1,PEPTIDE1,2:R3-10:R3|PEPTIDE1,PEPTIDE1,1:R1-13:R2$$$V2.0) registered a Cytotoxicity LC50/GI50 Hela cells of 83000 nM.

In the case of `CC[C@H](C)[C@@H]1NC(=O)[C@H](CO)NC(=O)[C@H](C)NC(=O)[C@H]([C@@H](C)O)NC(=O)[C@@H]2CSSC[C@H](NC(=O)[C@H](CCC(N)=O)NC(=O)[C@@H]3CCCN3C(=O)[C@@H]3CCCN3C1=O)C(=O)N[C@@H](Cc1ccccc1)C(=O)N1CCC[C@@H]1C(=O)N1CCC[C@H]1C(=O)N[C@@H](CCc1ccccc1)C(=O)N2` [Ex. 146] (HELM PEPTIDE1{[O=C([C@H](CCc1ccccc1)N[*:1])[*:2]].C.T.A.S.I.P.P.Q.C.F.[dP].P}$PEPTIDE1,PEPTIDE1,2:R3-10:R3|PEPTIDE1,PEPTIDE1,1:R1-13:R2$$$V2.0), in data set [3], the “Trypsin at 100 μM %” value is 3%. For the same molecule, the “Chymase at 100 μM %” value in [4] came out at 0%. The pIC50 in data set [2] is 7.92. For the same molecule, the “Thrombin at 100 μM %” value in data set [5] was found to be 11%. Further, in data set [6], the “Tryptase At 100 μM %” value is reported as 22%. Besides, in [7], the “Urokinase at 100 μM %” value is 0%. The “Cathepsin G at 100 μM %” value in [8] worked out at 1 at 100%. The “Chymotrypsin at 100 μM %” value in [9] came out at 87%. The “FXa at 100 μM %” value in data set [10] came out at 1%.

In the case of `CCCCCCCC[C@@H]1NC(=O)[C@@H]2CCCN2C(=O)[C@H]2CCCN2C(=O)[C@H](CCC(N)=O)NC(=O)[C@@H]2CSSC[C@H](NC1=O)C(=O)N[C@@H]([C@@H](C)O)C(=O)N[C@@H](C)C(=O)N[C@@H](CO)C(=O)N[C@@H](CCCCCCCC)C(=O)N1CCC[C@H]1C(=O)N1CCC[C@H]1C(=O)N[C@@H](CCC(N)=O)C(=O)N2` [Ex. 148] (HELM PEPTIDE1{[CCCCCCCC[C@H](N[*:1])C(=O)[*:2]].C.T.A.S.[CCCCCCCC[C@H](N[*:1])C(=O)[*:2]].P.P.Q.C.Q.[dP].P}$PEPTIDE1,PEPTIDE1,2:R3-10:R3|PEPTIDE1,PEPTIDE1,1:R1-13:R2$$$V2.0), the “Trypsin at 100 μM %” value in data set [3] stood at 9%. In data set [4], the “Chymase at 100 μM %” value is on record as 7%. The same molecule had a pIC50 in data set [2] of 7.96. Moreover, the “Thrombin at 100 μM %” value in data set [5] is listed as 32%. Besides, the “Tryptase At 100 μM %” value in [6] is 30%. Further, the “Urokinase at 100 μM %” value in data set [7] worked out at 12%. The “Cathepsin G at 100 μM %” value in data set [8] turned out to be 52 at 100%. Further, the “Chymotrypsin at 100 μM %” value in data set [9] was determined as 91%. In data set [10], the “FXa at 100 μM %” value came out at 8%.

Regarding `CC[C@H](C)[C@@H]1NC(=O)[C@@H]2CCCN2C(=O)[C@@H]2CCCN2C(=O)[C@H](CC(=O)O)NC(=O)[C@H](CO)NC(=O)[C@H](CCCCN)NC(=O)[C@H]([C@@H](C)O)NC(=O)[C@@H]2CSSC[C@H](NC1=O)C(=O)N[C@@H](CC(=O)O)C(=O)N1CCC[C@@H]1C(=O)N1CCC[C@H]1C(=O)N[C@@H](Cc1ccccc1)C(=O)N2` [Ex. 2] (HELM PEPTIDE1{F.C.T.K.S.D.P.P.I.C.D.[dP].P}$PEPTIDE1,PEPTIDE1,2:R3-10:R3|PEPTIDE1,PEPTIDE1,1:R1-13:R2$$$V2.0), in data set [3], the “Trypsin at 100 μM %” value turned out to be 92%. In data set [4], the “Chymase at 100 μM %” value was determined as 0%. Also, the figures for the pIC50 in data set [2] and in [8] were below 4.00 and 7.08, respectively. Also, the “Thrombin at 100 μM %” value in data set [5] is given as 9.2%. In addition, in data set [6], the “Tryptase at 100 μM %” value was determined as 39.6%. Moreover, the “Urokinase at 100 μM %” value in [7] turned out to be 0.9%. The “Chymotrypsin at 100 μM %” value in data set [9] is listed as 2.9%. The “FXa at 100 μM %” value in [10] came out at 5.3%.

As for `CC[C@H](C)[C@@H]1NC(=O)[C@@H]2CCCN2C(=O)[C@@H]2CCCN2C(=O)[C@H](CC(=O)O)NC(=O)[C@H](CO)NC(=O)[C@H](CCCCN)NC(=O)[C@H]([C@@H](C)O)NC(=O)[C@@H]2CSSC[C@H](NC1=O)C(=O)N[C@@H](CO)C(=O)N[C@H](C)C(=O)N[C@@H](CC(=O)O)C(=O)N[C@@H](Cc1ccccc1)C(=O)N2` [Ex. 68] (HELM PEPTIDE1{F.C.T.K.S.D.P.P.I.C.S.[dA].D}$PEPTIDE1,PEPTIDE1,2:R3-10:R3|PEPTIDE1,PEPTIDE1,1:R1-13:R2$$$V2.0), in [3], the “Trypsin at 100 μM %” value is 84.2%. Also, the “Chymase at 100 μM %” value in data set [4] stood at 0%. In addition, the pIC50 is below 4.00 in [2] and 7.23 in data set [8]. Further, the “Thrombin at 100 μM %” value in [5] was 5.4%. Also, in data set [6], the “Tryptase at 100 μM %” value worked out at 21.3%. Further, the “Urokinase at 100 μM %” value in [7] was 4.6%. For the same molecule, the “Chymotrypsin at 100 μM %” value in [9] came to 4.3%. The “FXa at 100 μM %” value in data set [10] was 8.6%.
